In patent US6855843B2, “Inhibitors of α4 mediated cell adhesion” (Tanabe Seiyaku Co., Ltd., priority 1998, dated 2005):

The molecules below were run against T1, α4β7 (adhesion of RPMI cells to CS-1) (Homo sapiens, UniProt P13612+P26010) (assay: RPMI-CS-1 cell adhesion assay). Details: adhesion of RPMI B-cell line (expresses α4β7) to CS-1 peptide coated microwells; read-out: RPMI-CS-1 IC50 value range.
T1 construct: endogenous in cells
T1 sequence (P13612 34-1032): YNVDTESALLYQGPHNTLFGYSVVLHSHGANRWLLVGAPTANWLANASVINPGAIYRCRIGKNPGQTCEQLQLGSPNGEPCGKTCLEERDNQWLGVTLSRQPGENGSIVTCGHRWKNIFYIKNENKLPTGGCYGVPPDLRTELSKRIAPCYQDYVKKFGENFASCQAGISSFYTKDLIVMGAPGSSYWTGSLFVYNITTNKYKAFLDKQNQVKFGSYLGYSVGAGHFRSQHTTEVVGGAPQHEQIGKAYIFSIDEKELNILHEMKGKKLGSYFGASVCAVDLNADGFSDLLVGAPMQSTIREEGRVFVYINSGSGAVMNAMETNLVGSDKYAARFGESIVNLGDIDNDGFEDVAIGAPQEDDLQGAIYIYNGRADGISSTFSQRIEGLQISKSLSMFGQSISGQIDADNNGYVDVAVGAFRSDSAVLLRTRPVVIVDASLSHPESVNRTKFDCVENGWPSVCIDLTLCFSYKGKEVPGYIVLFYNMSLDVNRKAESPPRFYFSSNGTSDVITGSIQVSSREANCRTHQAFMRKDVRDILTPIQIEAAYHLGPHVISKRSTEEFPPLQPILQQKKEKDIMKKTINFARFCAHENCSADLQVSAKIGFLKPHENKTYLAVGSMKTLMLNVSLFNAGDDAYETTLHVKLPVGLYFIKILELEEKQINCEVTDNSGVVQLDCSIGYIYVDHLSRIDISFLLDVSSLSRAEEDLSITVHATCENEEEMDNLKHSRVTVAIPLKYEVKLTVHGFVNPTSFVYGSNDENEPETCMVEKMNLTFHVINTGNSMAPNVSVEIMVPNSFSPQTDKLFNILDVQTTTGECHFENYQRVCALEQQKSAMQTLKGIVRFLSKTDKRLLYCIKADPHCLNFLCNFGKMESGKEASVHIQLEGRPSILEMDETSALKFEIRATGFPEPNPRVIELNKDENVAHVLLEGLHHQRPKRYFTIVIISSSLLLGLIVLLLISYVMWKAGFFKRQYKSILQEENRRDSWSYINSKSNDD
T1 sequence (P26010 20-798): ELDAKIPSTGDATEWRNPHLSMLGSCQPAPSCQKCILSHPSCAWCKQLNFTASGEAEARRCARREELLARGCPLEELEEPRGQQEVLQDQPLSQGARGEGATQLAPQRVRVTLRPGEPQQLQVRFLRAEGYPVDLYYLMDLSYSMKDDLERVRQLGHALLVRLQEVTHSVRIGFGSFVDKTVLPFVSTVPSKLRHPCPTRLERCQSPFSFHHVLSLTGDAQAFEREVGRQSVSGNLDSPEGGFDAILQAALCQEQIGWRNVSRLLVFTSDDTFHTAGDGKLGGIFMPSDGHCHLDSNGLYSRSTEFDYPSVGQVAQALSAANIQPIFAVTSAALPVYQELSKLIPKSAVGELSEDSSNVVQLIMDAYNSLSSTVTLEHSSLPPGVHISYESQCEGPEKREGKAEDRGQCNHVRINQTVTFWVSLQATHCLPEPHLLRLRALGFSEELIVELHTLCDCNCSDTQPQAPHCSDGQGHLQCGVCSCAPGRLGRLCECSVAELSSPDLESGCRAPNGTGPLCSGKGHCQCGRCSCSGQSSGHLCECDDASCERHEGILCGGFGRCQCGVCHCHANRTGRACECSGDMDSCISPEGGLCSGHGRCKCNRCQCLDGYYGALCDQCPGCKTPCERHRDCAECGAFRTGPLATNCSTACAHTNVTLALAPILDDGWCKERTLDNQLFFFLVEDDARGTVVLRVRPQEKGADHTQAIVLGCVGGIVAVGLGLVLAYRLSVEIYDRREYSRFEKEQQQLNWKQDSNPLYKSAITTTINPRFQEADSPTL
Assay type: cell-based

First: O=C(N[C@@H](Cc1ccc(-c2ccccc2)cc1)C(=O)O)c1ccc(F)cc1Cl [Example 109]
Second: O=C(N[C@@H](Cc1ccc(-c2ccccc2)cc1)C(=O)O)c1c(Cl)cccc1Cl [Example 111]
The IC50 of the first is higher: over 5000 nM for the first, 1000 to 5000 nM for the second. The second is the more potent here.

Compared with O=C(N[C@@H](Cc1ccc(-c2ccccc2)cc1)C(=O)O)c1ccccc1[N+](=O)[O-] [Example 110], Cc1ccccc1-c1ccc(C[C@H](NC(=O)c2c(Cl)cccc2Cl)C(=O)O)cc1 [Example 112] is lower in IC50: over 5000 nM for the first, 300 to 1000 nM for the second.

First: COC(=O)[C@H](Cc1ccc(-c2ccccc2CNCc2ccccc2)cc1)NC(=O)c1c(Cl)cccc1Cl [Example 114]
Second: COC(=O)[C@H](Cc1ccc(-c2ccccc2CNc2ccccn2)cc1)NC(=O)c1c(Cl)cccc1Cl [Example 115]
The IC50 of the first is lower: 300 to 1000 nM for the first, 1000 to 5000 nM for the second.

First: COC(=O)[C@H](Cc1ccc(-c2ccccc2CNc2cccnc2)cc1)NC(=O)c1c(Cl)cccc1Cl [Example 116]
Second: COC(=O)[C@H](Cc1ccc(-c2cccnc2)cc1)NC(=O)c1c(Cl)cccc1Cl [Example 127]
The IC50 of the first is lower: 1000 to 5000 nM for the first, over 5000 nM for the second.

Cc1ccc(-c2ccc(C[C@H](NC(=O)c3c(Cl)cccc3Cl)C(=O)O)cc2)cc1 [Example 117] and COc1ccc(-c2ccc(C[C@H](NC(=O)c3c(Cl)cccc3Cl)C(=O)O)cc2)cc1 [Example 118] fall in the same range of IC50: 1000 to 5000 nM for the first, 1000 to 5000 nM for the second.

COc1cccc(-c2ccc(C[C@H](NC(=O)c3c(Cl)cccc3Cl)C(=O)O)cc2)c1 [Example 119] and CCOc1cccc(-c2ccc(C[C@H](NC(=O)c3c(Cl)cccc3Cl)C(=O)O)cc2)c1 [Example 120] cannot be ordered by IC50: over 5000 nM for the first, over 5000 nM for the second.

Nc1cccc(-c2ccc(C[C@H](NC(=O)c3c(Cl)cccc3Cl)C(=O)O)cc2)c1 [Example 122] and CC(=O)Nc1cccc(-c2ccc(C[C@H](NC(=O)c3c(Cl)cccc3Cl)C(=O)O)cc2)c1 [Example 124] fall in the same range of IC50: 1000 to 5000 nM for the first, 1000 to 5000 nM for the second.

CS(=O)(=O)Nc1cccc(-c2ccc(C[C@H](NC(=O)c3c(Cl)cccc3Cl)C(=O)O)cc2)c1 [Example 123] and COC(=O)Nc1cccc(-c2ccc(C[C@H](NC(=O)c3c(Cl)cccc3Cl)C(=O)O)cc2)c1 [Example 125] fall in the same range of IC50: 1000 to 5000 nM for the first, 1000 to 5000 nM for the second.

CCCCCC(=O)Nc1cccc(-c2ccc(C[C@H](NC(=O)c3c(Cl)cccc3Cl)C(=O)O)cc2)c1 [Example 126] and O=C(N[C@@H](Cc1ccc(-c2cccnc2)cc1)C(=O)O)c1c(Cl)cccc1Cl [Example 129] fall in the same range of IC50: 1000 to 5000 nM for the first, 1000 to 5000 nM for the second.

O=C(N[C@@H](Cc1ccc(-c2ccsc2)cc1)C(=O)O)c1c(Cl)cccc1Cl [Example 128] and COc1sccc1-c1ccc(C[C@H](NC(=O)c2c(Cl)cccc2Cl)C(=O)O)cc1 [Example 136] fall in the same range of IC50: 300 to 1000 nM for the first, 300 to 1000 nM for the second.

Compared with O=C(N[C@@H](Cc1ccc(-c2cc3ccccc3o2)cc1)C(=O)O)c1c(Cl)cccc1Cl [Example 130], N#Cc1ccccc1-c1ccc(C[C@H](NC(=O)c2c(Cl)cccc2Cl)C(=O)O)cc1 [Example 138] is lower in IC50: over 5000 nM for the first, under 300 nM for the second.

COc1cccc(OC)c1-c1ccc(C[C@H](NC(=O)c2c(Cl)cccc2Cl)C(=O)O)cc1C(C)O (some centres unmarked) [Example 131] and COc1cc(F)c(-c2ccc(C[C@H](NC(=O)c3c(Cl)cccc3Cl)C(=O)O)cc2)c(OC)c1 [Example 139] cannot be ordered by IC50: under 300 nM for the first, under 300 nM for the second.

CCN(CC)Cc1cc(OC)c(-c2ccc(C[C@H](NC(=O)c3c(Cl)cccc3Cl)C(=O)O)cc2)c(OC)c1 [Example 132] and COc1cc(CN2CCOCC2)cc(OC)c1-c1ccc(C[C@H](NC(=O)c2c(Cl)cccc2Cl)C(=O)O)cc1 [Example 133] cannot be ordered by IC50: under 300 nM for the first, under 300 nM for the second.

COc1cc(CN2CCSCC2)cc(OC)c1-c1ccc(C[C@H](NC(=O)c2c(Cl)cccc2Cl)C(=O)O)cc1 [Example 134] and O=C(N[C@@H](Cc1ccc(-c2c(F)cccc2F)cc1)C(=O)O)c1c(Cl)cccc1Cl [Example 135, N-(2,6-Dichlorobenzoyl)-4-(2,6-difluorophenyl)-L-phenylalanine] cannot be ordered by IC50: under 300 nM for the first, under 300 nM for the second.

For O=C(N[C@@H](Cc1ccc(-c2ccccn2)cc1)C(=O)O)c1c(Cl)cccc1Cl [Example 137], the IC50 was 300 to 1000 nM.
